In brackets after ≈: the same amount, converted by molar mass. Activity calls are given as the source filed them. The rule behind the calls is not given here.
Key:
[1] = target: Cyclin-dependent kinase 4/cyclin D1 (Homo sapiens, UniProt P11802); assay: Inhibition of CDK4/cyclin D1 (unknown origin); assay type: protein-complex assay
MIA PaCa-2 [2] = assay: Antiproliferative activity against human MIA PaCa-2 cells assessed as inhibition of cell growth by MTT assay; assay type: functional, cell-based
BXPC-3 = assay: Antiproliferative activity against human BxPC-3 cells assessed as inhibition of cell growth by MTT assay; assay type: functional, cell-based
CDK6/cyclin D1 = CDK6/cyclin D1 (Homo sapiens, UniProt Q00534); assay: Inhibition of CDK6/cyclin D1 (unknown origin); assay type: protein-complex assay
MIA PaCa-2 [3] = assay: Cell cycle arrest in human MIA PaCa-2 cells assessed as accumulation at G2 phase at 1.6 uM (reference value: 10.64 %); assay type: functional
[4] = Permeability of the compound at pH 5.0 by PAMPA; assay type: ADME; conditions: read-out: permeability
MIA PaCa-2 [5] = assay: Cell cycle arrest in human MIA PaCa-2 cells assessed as accumulation at G2 phase at 2.5 uM (reference value: 10.64 %); assay type: functional
MIA PaCa-2 [6] = assay: Cell cycle arrest in human MIA PaCa-2 cells assessed as accumulation at S phase at 1.6 uM (reference value: 45.27 %); assay type: functional
[7] = Permeability of the compound at pH 7.4 by PAMPA; assay type: ADME; conditions: read-out: permeability
MIA PaCa-2 [8] = assay: Cell cycle arrest in human MIA PaCa-2 cells assessed as accumulation at S phase at 2.5 uM (reference value: 45.27 %); assay type: functional
MIA PaCa-2 [9] = assay: Cell cycle arrest in human MIA PaCa-2 cells assessed as accumulation at G1 phase at 2.5 uM (reference value: 44.09 %); assay type: functional
[10] = Metabolic stability in human liver microsomes assessed as half life; assay type: ADME, Microsome
[11] = Metabolic stability in rat liver microsomes assessed as half life; assay type: ADME, Microsome
MIA PaCa-2 [12] = assay: Cell cycle arrest in human MIA PaCa-2 cells assessed as accumulation at S phase at 0.8 uM (reference value: 45.27 %); assay type: functional
[13] = Solubility of the compound at pH 7.4; assay type: physicochemical; conditions: buffer
[14] = target: Cyclin-dependent kinase 9 (Homo sapiens) (UniProt P50750); assay: Inhibition of CDK9 (unknown origin) at 1 uM relative to control
MIA PaCa-2 [15] = assay: Cell cycle arrest in human MIA PaCa-2 cells assessed as accumulation at G2 phase at 0.8 uM (reference value: 10.64 %); assay type: functional
MIA PaCa-2 [16] = assay: Cell cycle arrest in human MIA PaCa-2 cells assessed as accumulation at G1 phase at 1.6 uM (reference value: 44.09 %); assay type: functional
MIA PaCa-2 [17] = assay: Cell cycle arrest in human MIA PaCa-2 cells assessed as accumulation at G1 phase at 0.8 uM (reference value: 44.09 %); assay type: functional
[18] = target: Cyclin-dependent kinase 4 (Homo sapiens) (UniProt P11802); assay: Inhibition of CDK4 (unknown origin) at 1 uM
[19] = target: Cyclin-dependent kinase 6 (Homo sapiens) (UniProt Q00534); assay: Inhibition of CDK6 (unknown origin) at 1 uM
[20] = target: Cyclin-dependent kinase 7 (Homo sapiens) (UniProt P50613); assay: Inhibition of CDK7 (unknown origin) at 1 uM
[21] = target: Mitogen-activated protein kinase kinase kinase 9 (Homo sapiens) (UniProt P80192); assay: Inhibition of human MLK1 at 1 uM relative to control
[22] = target: CDK4/Cyclin D3 (Homo sapiens) (UniProt P11802+P30281); assay: Inhibition of human CDK4/cyclin D3 at 1 uM relative to control; assay type: protein-complex assay
[23] = target: Calcium/calmodulin-dependent protein kinase kinase 1 (Homo sapiens) (UniProt Q8N5S9); assay: Inhibition of human CAMKKA at 1 uM relative to control
[24] = target: Cyclin-dependent kinase 9 (Homo sapiens) (UniProt P50750); assay: Inhibition of CDK9 (unknown origin) at 1 uM
[25] = target: Dual specificity protein kinase TTK (Homo sapiens) (UniProt P33981); assay: Inhibition of human TTK at 1 uM relative to control
[26] = target: Cyclin-dependent kinase 4/cyclin D1 (Homo sapiens) (UniProt P11802+P24385); assay: Inhibition of human CDK4/cyclin D1 at 1 uM relative to control; assay type: protein-complex assay
[27] = target: Calcium/calmodulin-dependent protein kinase type 1 (Homo sapiens) (UniProt Q14012); assay: Inhibition of human CAMK1 at 1 uM relative to control
[28] = target: CDK6/cyclin D1 (Homo sapiens) (UniProt P24385+Q00534); assay: Inhibition of human CDK6/cyclin D1 at 1 uM relative to control; assay type: protein-complex assay
[29] = target: Cyclin-dependent kinase 3 (Homo sapiens) (UniProt Q00526); assay: Inhibition of CDK3 (unknown origin) at 1 uM
[30] = target: Cyclin-dependent kinase 2 (Homo sapiens) (UniProt P24941); assay: Inhibition of CDK2 (unknown origin) at 1 uM
[31] = target: Tyrosine-protein kinase Fer (Homo sapiens) (UniProt P16591); assay: Inhibition of human FER at 1 uM relative to control
[32] = target: Cyclin-dependent kinase 5 (Homo sapiens) (UniProt Q00535); assay: Inhibition of CDK5 (unknown origin) at 1 uM
[33] = target: Cyclin-dependent kinase 8 (Homo sapiens) (UniProt P49336); assay: Inhibition of CDK8 (unknown origin) at 1 uM
[34] = target: Cyclin-dependent kinase 1 (Homo sapiens) (UniProt P06493); assay: Inhibition of CDK1 (unknown origin) at 1 uM

Sequence of Cyclin-dependent kinase 6 (Homo sapiens) (Q00534 whole entry): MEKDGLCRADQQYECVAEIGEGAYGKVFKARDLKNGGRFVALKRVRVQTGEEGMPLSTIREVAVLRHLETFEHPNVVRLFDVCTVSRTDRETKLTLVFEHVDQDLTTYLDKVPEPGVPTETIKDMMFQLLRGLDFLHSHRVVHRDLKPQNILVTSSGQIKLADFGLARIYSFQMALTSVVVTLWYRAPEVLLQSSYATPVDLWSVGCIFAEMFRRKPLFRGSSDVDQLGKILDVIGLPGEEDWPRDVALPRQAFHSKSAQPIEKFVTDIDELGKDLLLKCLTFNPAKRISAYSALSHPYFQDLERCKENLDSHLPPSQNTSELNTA
Sequence of Cyclin-dependent kinase 4/cyclin D1 (P11802 whole entry): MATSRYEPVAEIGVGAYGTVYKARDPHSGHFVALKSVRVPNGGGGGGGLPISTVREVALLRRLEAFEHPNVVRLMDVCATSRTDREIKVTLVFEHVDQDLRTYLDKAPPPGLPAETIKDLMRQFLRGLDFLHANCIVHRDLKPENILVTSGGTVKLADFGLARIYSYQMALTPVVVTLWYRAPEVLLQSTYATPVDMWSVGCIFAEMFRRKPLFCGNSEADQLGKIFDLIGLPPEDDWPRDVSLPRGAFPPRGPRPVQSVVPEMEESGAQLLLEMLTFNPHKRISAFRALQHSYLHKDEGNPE
Sequence of Cyclin-dependent kinase 4/cyclin D1 (P24385 whole entry, further chain): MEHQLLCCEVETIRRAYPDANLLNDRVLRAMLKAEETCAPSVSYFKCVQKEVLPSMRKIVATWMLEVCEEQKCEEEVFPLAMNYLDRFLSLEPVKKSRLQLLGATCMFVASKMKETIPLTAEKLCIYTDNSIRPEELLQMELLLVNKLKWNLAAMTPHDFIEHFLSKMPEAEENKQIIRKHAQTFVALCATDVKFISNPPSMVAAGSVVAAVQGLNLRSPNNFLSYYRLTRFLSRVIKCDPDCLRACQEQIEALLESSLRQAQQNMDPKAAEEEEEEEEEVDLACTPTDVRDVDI
Sequence of Cyclin-dependent kinase 4 (Homo sapiens) (P11802 whole entry): as the sequence (P11802 whole entry) above
Sequence of CDK6/cyclin D1 (P24385 whole entry): as the sequence (P24385 whole entry, further chain) above
Sequence of CDK6/cyclin D1 (Q00534 whole entry): as the sequence (Q00534 whole entry) above
Sequence of Cyclin-dependent kinase 9 (Homo sapiens) (P50750 whole entry): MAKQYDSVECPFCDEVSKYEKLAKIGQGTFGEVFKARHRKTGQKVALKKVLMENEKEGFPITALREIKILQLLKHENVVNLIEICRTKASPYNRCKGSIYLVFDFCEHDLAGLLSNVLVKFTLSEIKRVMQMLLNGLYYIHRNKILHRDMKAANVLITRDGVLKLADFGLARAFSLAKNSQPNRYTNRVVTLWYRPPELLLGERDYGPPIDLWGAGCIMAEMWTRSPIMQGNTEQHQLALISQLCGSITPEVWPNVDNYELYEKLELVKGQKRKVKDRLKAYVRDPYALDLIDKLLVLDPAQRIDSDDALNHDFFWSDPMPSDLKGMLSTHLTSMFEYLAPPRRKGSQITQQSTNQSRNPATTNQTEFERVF
Sequence of Cyclin-dependent kinase 5 (Homo sapiens) (Q00535 whole entry, looked up): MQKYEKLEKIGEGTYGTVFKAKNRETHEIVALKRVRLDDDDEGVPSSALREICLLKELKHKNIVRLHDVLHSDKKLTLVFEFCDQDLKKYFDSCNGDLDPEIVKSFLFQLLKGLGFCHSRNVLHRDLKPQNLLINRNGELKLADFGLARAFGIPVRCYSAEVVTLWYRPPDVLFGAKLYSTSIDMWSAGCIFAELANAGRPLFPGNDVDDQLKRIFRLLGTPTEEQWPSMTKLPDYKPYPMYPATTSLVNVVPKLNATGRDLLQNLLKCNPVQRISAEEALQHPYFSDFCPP
Sequence of Mitogen-activated protein kinase kinase kinase 9 (Homo sapiens) (P80192 whole entry, looked up): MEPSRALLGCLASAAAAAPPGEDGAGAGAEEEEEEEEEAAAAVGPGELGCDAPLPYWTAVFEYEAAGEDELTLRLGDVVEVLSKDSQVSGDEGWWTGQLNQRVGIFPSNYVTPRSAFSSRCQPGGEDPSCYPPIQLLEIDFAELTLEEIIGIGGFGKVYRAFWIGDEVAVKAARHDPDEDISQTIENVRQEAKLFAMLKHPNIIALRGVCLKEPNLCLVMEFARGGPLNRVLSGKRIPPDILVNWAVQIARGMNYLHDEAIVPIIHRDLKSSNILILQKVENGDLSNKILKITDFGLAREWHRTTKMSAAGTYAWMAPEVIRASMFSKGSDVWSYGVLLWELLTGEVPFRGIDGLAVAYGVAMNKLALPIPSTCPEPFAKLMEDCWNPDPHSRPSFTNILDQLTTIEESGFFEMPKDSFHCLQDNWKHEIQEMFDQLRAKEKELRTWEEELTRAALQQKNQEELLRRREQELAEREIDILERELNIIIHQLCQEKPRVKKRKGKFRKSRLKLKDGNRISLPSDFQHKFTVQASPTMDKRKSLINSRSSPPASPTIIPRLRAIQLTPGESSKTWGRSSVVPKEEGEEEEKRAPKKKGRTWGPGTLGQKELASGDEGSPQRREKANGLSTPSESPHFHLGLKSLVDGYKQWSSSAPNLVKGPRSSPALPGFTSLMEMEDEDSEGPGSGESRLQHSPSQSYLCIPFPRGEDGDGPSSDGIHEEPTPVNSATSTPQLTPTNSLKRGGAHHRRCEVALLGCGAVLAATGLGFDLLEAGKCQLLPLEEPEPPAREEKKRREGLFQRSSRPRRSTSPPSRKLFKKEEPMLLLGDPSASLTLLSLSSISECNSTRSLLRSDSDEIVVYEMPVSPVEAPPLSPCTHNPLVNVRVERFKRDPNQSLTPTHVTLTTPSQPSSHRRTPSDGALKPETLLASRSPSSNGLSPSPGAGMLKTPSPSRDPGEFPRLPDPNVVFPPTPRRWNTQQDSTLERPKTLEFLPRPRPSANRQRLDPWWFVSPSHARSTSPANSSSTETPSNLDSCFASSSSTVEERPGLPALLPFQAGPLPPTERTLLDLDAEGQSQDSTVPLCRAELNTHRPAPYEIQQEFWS
Sequence of Cyclin-dependent kinase 7 (Homo sapiens) (P50613 whole entry): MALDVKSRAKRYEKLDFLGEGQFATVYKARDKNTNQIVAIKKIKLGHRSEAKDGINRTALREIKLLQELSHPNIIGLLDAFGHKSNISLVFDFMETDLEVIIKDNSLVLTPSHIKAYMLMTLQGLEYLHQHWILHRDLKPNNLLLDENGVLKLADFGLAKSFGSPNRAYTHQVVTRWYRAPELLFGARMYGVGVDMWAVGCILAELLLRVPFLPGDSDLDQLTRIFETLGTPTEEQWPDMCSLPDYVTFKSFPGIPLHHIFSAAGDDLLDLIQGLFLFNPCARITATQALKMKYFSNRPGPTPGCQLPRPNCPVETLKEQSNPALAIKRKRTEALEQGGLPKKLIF
Sequence of Cyclin-dependent kinase 8 (Homo sapiens) (P49336 whole entry): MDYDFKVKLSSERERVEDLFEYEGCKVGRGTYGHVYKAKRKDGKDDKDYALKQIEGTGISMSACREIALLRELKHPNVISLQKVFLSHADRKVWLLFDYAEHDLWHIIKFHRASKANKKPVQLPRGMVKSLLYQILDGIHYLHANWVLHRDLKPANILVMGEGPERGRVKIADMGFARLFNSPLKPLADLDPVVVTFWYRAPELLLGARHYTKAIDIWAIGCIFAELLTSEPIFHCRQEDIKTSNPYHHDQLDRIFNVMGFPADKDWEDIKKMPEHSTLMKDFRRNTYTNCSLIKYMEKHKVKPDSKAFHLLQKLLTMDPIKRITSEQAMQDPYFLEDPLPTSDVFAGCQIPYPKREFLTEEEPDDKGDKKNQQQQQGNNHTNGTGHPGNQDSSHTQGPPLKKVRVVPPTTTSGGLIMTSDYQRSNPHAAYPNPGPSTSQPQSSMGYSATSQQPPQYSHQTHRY
Sequence of Cyclin-dependent kinase 3 (Homo sapiens) (Q00526 whole entry, looked up): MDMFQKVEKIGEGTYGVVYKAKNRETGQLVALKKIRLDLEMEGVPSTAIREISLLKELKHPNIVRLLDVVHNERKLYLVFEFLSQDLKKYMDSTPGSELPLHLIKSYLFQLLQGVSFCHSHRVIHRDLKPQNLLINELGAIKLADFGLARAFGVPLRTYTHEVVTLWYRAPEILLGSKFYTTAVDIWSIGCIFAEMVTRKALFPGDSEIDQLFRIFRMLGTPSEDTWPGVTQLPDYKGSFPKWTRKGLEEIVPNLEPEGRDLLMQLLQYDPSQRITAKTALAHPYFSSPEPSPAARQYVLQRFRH
Sequence of Tyrosine-protein kinase Fer (Homo sapiens) (P16591 whole entry, looked up): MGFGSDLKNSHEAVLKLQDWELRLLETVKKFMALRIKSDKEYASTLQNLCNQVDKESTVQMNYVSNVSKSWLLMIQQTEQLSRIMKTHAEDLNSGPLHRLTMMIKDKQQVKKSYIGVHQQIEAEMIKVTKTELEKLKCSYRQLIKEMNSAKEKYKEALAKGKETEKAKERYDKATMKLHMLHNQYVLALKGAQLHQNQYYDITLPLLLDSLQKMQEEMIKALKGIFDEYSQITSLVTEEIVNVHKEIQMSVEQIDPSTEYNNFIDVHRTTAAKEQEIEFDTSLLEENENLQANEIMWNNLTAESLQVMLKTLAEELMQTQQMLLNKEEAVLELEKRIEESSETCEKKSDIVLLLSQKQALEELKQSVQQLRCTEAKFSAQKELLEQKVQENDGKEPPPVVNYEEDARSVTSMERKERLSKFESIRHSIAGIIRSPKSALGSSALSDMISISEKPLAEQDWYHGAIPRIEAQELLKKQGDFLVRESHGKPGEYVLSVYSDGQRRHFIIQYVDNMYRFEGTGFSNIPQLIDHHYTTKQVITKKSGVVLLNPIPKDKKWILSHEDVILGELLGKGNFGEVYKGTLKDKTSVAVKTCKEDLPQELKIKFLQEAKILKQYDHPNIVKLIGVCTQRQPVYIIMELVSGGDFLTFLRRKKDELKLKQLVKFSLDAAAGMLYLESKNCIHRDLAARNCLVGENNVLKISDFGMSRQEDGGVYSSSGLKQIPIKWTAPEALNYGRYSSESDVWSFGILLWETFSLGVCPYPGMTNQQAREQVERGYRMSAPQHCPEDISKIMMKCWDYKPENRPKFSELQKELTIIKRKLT

IC50 [1] [µM]	IC50 (MIA PaCa-2 [2]) [µM]	IC50 (BXPC-3) [µM]	IC50 (CDK6/cyclin D1) [µM]	inhibition [18]	inhibition [19]	SMILES	also measured
0.861	39.6					O=C(c1cc2cnc(Nc3ccc(N4CCNCC4)cn3)nc2n1C1CCCC1)N1CCCCC1	
0.0281	2.23	3.65	0.268			COc1ccc(NC(=O)c2cc3cnc(Nc4ccc(N5CCNCC5)cn4)nc3n2C2CCCC2)c(OC)c1	
0.15	8.25					Cc1cc(C)nc(NS(=O)(=O)c2ccc(Nc3ncc4cc(C(=O)N(C)C)n(C5CCCC5)c4n3)cc2)n1	Activity (MIA PaCa-2 [3]): 17.5%; Papp [4]: 443 ×10⁻⁶ cm/s; Activity (MIA PaCa-2 [5]): 27.08%; Activity (MIA PaCa-2 [6]): 39.11%; Papp [7]: 376 ×10⁻⁶ cm/s; Activity (MIA PaCa-2 [8]): 37.29%; Activity (MIA PaCa-2 [9]): 35.53%; half-life [10]: 25.1 min; half-life [11]: > 30 min; Activity (MIA PaCa-2 [12]): 36.86%; solubility [13]: 7.5 µg/mL (≈ 14 µM); inhibition [14]: 99%; Activity (MIA PaCa-2 [15]): 18.44%; Activity (MIA PaCa-2 [16]): 43.39%; Activity (MIA PaCa-2 [17]): 44.7%
0.143	13					CN(C)C(=O)c1cc2cnc(Nc3ccc(Cl)cc3)nc2n1C1CCCC1	
1.19	14					O=C(Nc1ccccc1)c1cc2cnc(Nc3ccccc3)nc2n1C1CCCC1	
0.0287	2.8	5.12	0.0638	Active	Active	O=C(Nc1ccccc1)c1cc2cnc(Nc3ccc(N4CCNCC4)cn3)nc2n1C1CCCC1	
> 100	3.6			inactive	inactive	O=C(Nc1ccccc1)c1cc2cnc(Nc3ccc(N4CCNCC4)cn3)nc2n1Cc1ccccc1	inhibition [20]: inactive; inhibition [21]: inactive; inhibition [22]: inactive; inhibition [23]: inactive; inhibition [24]: inactive; inhibition [25]: inactive; inhibition [26]: inactive; inhibition [27]: inactive; inhibition [28]: inactive; inhibition [29]: inactive; inhibition [30]: inactive; inhibition [31]: inactive; inhibition [32]: inactive; inhibition [33]: inactive; inhibition [34]: inactive
	5.8					CCN1CCN(Cc2ccc(Nc3ncc(F)c(-c4cc(F)c5nc(C)n(C(C)C)c5c4)n3)nc2)CC1 [ABEMACICLIB]	
0.379	25					CN(C)C(=O)c1cc2cnc(NC3CCCCC3)nc2n1C1CCCC1	
0.315	26					CN(C)C(=O)c1cc2cnc(Nc3cccnc3)nc2n1C1CCCC1	
0.0453	3.67	8.37	0.369	Active	Active	O=C(Nc1ccccc1F)c1cc2cnc(Nc3ccc(N4CCNCC4)cn3)nc2n1C1CCCC1	
0.0282	2.5	3.34	0.064	Active	Active	Cc1ccccc1NC(=O)c1cc2cnc(Nc3ccc(N4CCNCC4)cn3)nc2n1C1CCCC1	

Source: ChEMBL document CHEMBL4673362, “Design, synthesis, and biological evaluation of 2,6,7-substituted pyrrolo[2,3-d]pyrimidines as cyclin dependent kinase inhibitor in pancreatic cancer cells” (Bioorg Med Chem Lett, 2021)
